{"source": "patent US20060205788A1", "about": "“Compounds having activity at 5ht2c receptor and uses thereof” (priority 2003, published 2006)"}
{"smiles": "COc1ccc(C2=CCN(c3ccc(Cl)c(Cl)c3)C2=O)cc1OCCN1CCCCC1", "values": [{"measurement": "melting point", "result": "98 to 99", "unit": "°C"}]}
